These results are taken from US20110044938A1 (NYCOMED GMBH, priority 2006, published 2011).

For experiment [1], the system named is RKO (RKOp27) human colon adenocarcinoma cells. Nature of the experiment: Alamar Blue cell viability assay, anti-proliferative/cytotoxic activity on proliferating RKO subclones. As to conditions: RKOp27, 72 h, RKO p27 uninduced (proliferating) cells, value = class bound given in Table A, read-out: −logIC50 RKO p27 uninduced (proliferating) (converted). The class given is cell-based. In a few lines: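 RKOp27 subclones (5000 cells/well) were exposed 24 h after seeding to semi-log compound dilutions in DMEM with 10% FCS, in quadruplicate, for 72 h at 37 °C. Viability was read by Alamar Blue fluorescence (544/590 nm) relative to untreated cells (1% DMSO medium). IC50 came from concentration-effect curves and is reported as −log IC50 [mol/l].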

In experiment [2] the test system is subclones of RKO colon adenocarcinoma cells (RKOp27 or RKOp21) arrested by Ponasterone A. Kind of experiment: Alamar Blue cell viability assay, cell cycle specific mode of action: cells arrested by ectopic p27Kip1 induced by Ponasterone A versus proliferating cells. Type of experiment: cell-based. As to conditions: Homo sapiens, RKO p27 induced (arrested) cells, 10 μM Ponasterone A, 72 hours, value = class bound given in Table A, read-out: −logIC50 RKO p27 induced (arrested) (converted). In a few lines: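 RKOp27 or RKOp21 cells, 15000/well in DMEM/10% FCS, either arrested by p27Kip1 induced with 10 μM Ponasterone A or proliferating without inducer; compound added after 24 h, 72 h at 37° C. Alamar Blue fluorescence (544/590 nm), viability as % of untreated cells; −log IC50 reported.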
Background: Resazurin is reduced to fluorescent resorufin, in cell work by metabolically active cells.

In the case of `COc1cccc(CCC(=O)Nc2sc3c(c2C#N)CCC(COC(=O)OCc2nccs2)C3)c1` (stereo not shown) [Example 262, Carbonic acid 3-cyano-2-[3-(3-methoxy-phenyl)-propanoylamino]-4,5,6,7-tetrahydro-benzo[b]thiophen-6-ylmethyl ester thiazol-2-ylmethyl ester], the IC50 in experiment [1] was 501 to 2000 nM; in experiment [2], no less than 50.1 µM.
As for `CCOc1ccccc1/C=C/C(=O)Nc1sc2c(c1C#N)CCC(OC(=O)NCCn1ccnc1)C2` (stereo not shown) [Example 31, (2-Imidazol-1-yl-ethyl)-carbamic acid-3-cyano-2-[(E)-3-(2-ethoxy-phenyl)-allanoylamino]-4,5,6,7-tetrahydro-benzo[b]thiophen-6-yl ester], the IC50 in experiment [1] was no more than 501 nM; in experiment [2] it was no less than 10 µM.
As to `COc1cccc(CCC(=O)Nc2sc3c(c2C#N)CCC(OC(=O)NC2CC2)C3)c1` (stereo not shown) [Example 249, Cyclopropyl-carbamic acid 3-cyano-2-[3-(3-methoxy-phenyl)-propanoylamino]-4,5,6,7-tetrahydro-benzo[b]thiophen-6-yl ester], the IC50 in experiment [1] is no more than 501 nM; in experiment [2], no less than 100 µM.
With `CCOc1ccccc1CCC(=O)Nc1sc2c(c1C#N)CCC(COC(=O)NCc1cc(C)on1)C2` (stereo not shown) [Example 182, (5-Methyl-isoxazol-3-ylmethyl)-carbamic acid 3-cyano-2-[3-(2-ethoxy-phenyl)-propanoylamino]-4,5,6,7-tetrahydro-benzo[b]thiophen-6-ylmethyl ester], the IC50 was no more than 501 nM in experiment [1] and no less than 100 µM in experiment [2].
With `COc1cccc(C(C)CC(=O)Nc2sc3c(c2C#N)CCC(COC(=O)NCCc2cccnc2)C3)c1` (stereo not shown) [Example 327, (2-Pyridin-3-yl-ethyl)-carbamic acid 3-cyano-2-[3-(3-methoxy-phenyl)-butanoylamino]-4,5,6,7-tetrahydro-benzo[b]thiophen-6-ylmethyl ester], the figures for the IC50 in experiment [1] and in experiment [2] were 501 to 2000 nM and no less than 50.1 µM, respectively.
As for `CN(CC(O)CO)C(=O)OCC1CCc2c(sc(NC(=O)/C=C/c3cccnc3)c2C#N)C1` (stereo not shown) [Example 123, (2,3-Dihydroxy-propyl)-methyl-carbamic acid 3-cyano-2-((E)-3-pyridin-3-yl-allanoylamino)-4,5,6,7-tetrahydro-benzo[b]thiophen-6-ylmethyl ester], the IC50 in experiment [1] is 501 to 2000 nM; in experiment [2], no less than 100 µM.
On to `CCn1nccc1CNC(=O)OCC1CCc2c(sc(NC(=O)/C=C/c3cccnc3)c2C#N)C1` (stereo not shown) [Example 52, (2-Ethyl-2H-pyrazol-3-ylmethyl)-carbamic acid 3-cyano-2-((E)-3-pyridin-3-yl-allanoylamino)-4,5,6,7-tetrahydro-benzo[b]thiophen-6-ylmethyl ester], for which the results for the IC50 in experiment [1] and in experiment [2] were 501 to 2000 nM and no less than 100 µM, respectively.
With `CCNC(=O)OCC1CCc2c(sc(NC(=O)CCc3ccccc3OCC)c2C#N)C1` (stereo not shown) [Example 159, Ethyl-carbamic acid 3-cyano-2-[3-(2-ethoxy-phenyl)-propanoylamino]-4,5,6,7-tetrahydro-benzo[b]thiophen-6-ylmethyl ester], the values for the IC50 in experiment [1] and in experiment [2] were no more than 501 nM and no less than 100 µM, respectively.
For `COc1cccc(CCC(=O)Nc2sc3c(c2C#N)CCC(COC(=O)NCc2csc(C)n2)C3)c1` (stereo not shown) [Example 247, (2-Methyl-thiazol-4-ylmethyl)-carbamic acid 3-cyano-2-[3-(3-methoxy-phenyl)-propanoylamino]-4,5,6,7-tetrahydro-benzo[b]thiophen-6-ylmethyl ester], the IC50 in experiment [1] was no more than 501 nM; in experiment [2], no less than 100 µM.
Take `CC(CC(=O)Nc1sc2c(c1C#N)CCC(OC(=O)NC(C)c1ccnn1C)C2)c1ccccc1` (stereo not shown) [Example 299, [1-(2-Methyl-2H-pyrazol-3-yl)-ethyl]-carbamic acid 3-cyano-2-(3-phenyl-butanoylamino)-4,5,6,7-tetrahydro-benzo[b]thiophen-6-yl ester]: the IC50 is no more than 501 nM in experiment [1] and no less than 50.1 µM in experiment [2].
With `CCOc1ccccc1CCC(=O)Nc1sc2c(c1C#N)CCC(COC(=O)NCc1ccncc1)C2` (stereo not shown) [Example 181, Pyridin-4-ylmethyl-carbamic acid 3-cyano-2-[3-(2-ethoxy-phenyl)-propanoylamino]-4,5,6,7-tetrahydro-benzo[b]thiophen-6-ylmethyl ester], the IC50 in experiment [1] is no more than 501 nM; in experiment [2], no less than 100 µM.
As to `Cn1cc(CNC(=O)OC2CCc3c(sc(NC(=O)/C=C/c4cccnc4)c3C#N)C2)cn1` (stereo not shown) [Example 41, (1-Methyl-1H-pyrazol-4-ylmethyl)-carbamic acid 3-cyano-2-((E)-3-pyridin-3-yl-allanoylamino)-4,5,6,7-tetrahydro-benzo[b]thiophen-6-yl ester], the figures for the IC50 in experiment [1] and in experiment [2] were no more than 501 nM and no less than 100 µM, respectively.
In the case of `COc1cccc(CCC(=O)Nc2sc3c(c2C#N)CCC(COC(=O)NCc2cc(C)on2)C3)c1` (stereo not shown) [Example 240, (5-Methyl-isoxazol-3-ylmethyl)-carbamic acid 3-cyano-2-[3-(3-methoxy-phenyl)-propanoylamino]-4,5,6,7-tetrahydro-benzo[b]thiophen-6-ylmethyl ester], the IC50 in experiment [1] is no more than 501 nM; in experiment [2], no less than 100 µM.
Consider `COc1cccc(CCC(=O)Nc2sc3c(c2C#N)CCC(OC(=O)NC2CCOCC2)C3)c1` (stereo not shown) [Example 251, (Tetrahydro-pyran-4-yl)-carbamicacid 3-cyano-2-[3-(3-methoxy-phenyl)-propanoylamino]-4,5,6,7-tetrahydro-benzo[b]thiophen-6-yl ester], for which the IC50 in experiment [1] is 501 to 2000 nM; in experiment [2], no less than 100 µM.
In the case of `COc1cccc(C(C)CC(=O)Nc2sc3c(c2C#N)CCC(OC(=O)NCc2ccncc2)C3)c1` (stereo not shown) [Example 269, Pyridin-4-ylmethyl-carbamic acid 3-cyano-2-[3-(3-methoxy-phenyl)-butanoylamino]-4,5,6,7-tetrahydro-benzo[b]thiophen-6-yl ester], the IC50 was 501 to 2000 nM in experiment [1] and no less than 100 µM in experiment [2].
As for `CCOc1ccccc1CCC(=O)Nc1sc2c(c1C#N)CCC(OC(=O)NCc1ccccc1)C2` (stereo not shown) [Example 155, Benzyl-carbamic acid 3-cyano-2-[3-(2-ethoxy-phenyl)-propanoylamino]-4,5,6,7-tetrahydro-benzo[b]thiophen-6-yl ester], the IC50 is no more than 501 nM in experiment [1] and no less than 100 µM in experiment [2].
The like results for `COc1cccc(C(C)CC(=O)Nc2sc3c(c2C#N)CCC(COC(=O)NC2CCOCC2)C3)c1` (stereo not shown) [Example 329, (Tetrahydro-pyran-4-yl)-carbamic acid 3-cyano-2-[3-(3-methoxy-phenyl)-butanoyl-amino]-4,5,6,7-tetrahydro-benzo[b] thiophen-6-ylmethyl ester] were, in that order, 501 to 2000 nM and no less than 50.1 µM.
`COC(=O)OCC1CCc2c(sc(NC(=O)/C=C/c3cccnc3)c2C#N)C1` (stereo not shown) [Example 49, Carbonic acid 3-cyano-2-((E)-3-pyridin-3-yl-allanoylamino)-4,5,6,7-tetrahydro-benzo[b]thiophen-6-ylmethyl ester methyl ester]: the IC50 is 501 to 2000 nM in experiment [1] and no less than 100 µM in experiment [2].
For the molecule `CCn1nccc1CNC(=O)OC1CCc2c(sc(NC(=O)CC(C)c3cccc(OC)c3)c2C#N)C1` (stereo not shown) [Example 286, (2-Ethyl-2H-pyrazol-3-ylmethyl)-carbamic acid 3-cyano-2-[3-(3-methoxy-phenyl)-butanoylamino]-4,5,6,7-tetrahydro-benzo[b] thiophen-6-yl ester], the figures for the IC50 in experiment [1] and in experiment [2] were no more than 501 nM and no less than 100 µM, respectively.
As to `CC(CC(=O)Nc1sc2c(c1C#N)CCC(COC(=O)NCc1cncn1C)C2)c1ccccc1` (stereo not shown) [Example 312, (3-Methyl-3H-imidazol-4-ylmethyl)-carbamic acid 3-cyano-2-(3-phenyl-butanoylamino)-4,5,6,7-tetrahydro-benzo[b] thiophen-6-ylmethyl ester], the IC50 in experiment [1] is no more than 501 nM; in experiment [2] it was no less than 10 µM.
The like results for `CCOc1ccccc1CCC(=O)Nc1sc2c(c1C#N)CCC(OC(=O)NCc1nccs1)C2` (stereo not shown) [Example 206, Thiazol-2-ylmethyl-carbamic acid 3-cyano-2-[3-(2-ethoxy-phenyl)-propanoylamino]-4,5,6,7-tetrahydro-benzo[b]thiophen-6-yl ester] were, in that order, no more than 501 nM and no less than 100 µM.
`CCOc1ccccc1CCC(=O)Nc1sc2c(c1C#N)CCC(COC(=O)OCc1nccs1)C2` (stereo not shown) [Example 203, Carbonic acid 3-cyano-2-[3-(2-ethoxy-phenyl)-propanoylamino]-4,5,6,7-tetrahydro-benzo[b]thiophen-6-ylmethyl ester thiazol-2-ylmethyl ester]: the figures for the IC50 in experiment [1] and in experiment [2] were no more than 501 nM and no less than 100 µM, respectively.
For the molecule `N#Cc1c(NC(=O)/C=C/c2cccnc2)sc2c1CCC(OC(=O)NCCO)C2` (stereo not shown) [Example 23, (2-Hydroxy-ethyl)-carbamic acid 3-cyano-2-((E)-3-pyridin-3-yl-allanoylamino)-4,5,6,7-tetrahydro-benzo[b]thiophen-6-yl ester], the IC50 is 501 to 2000 nM in experiment [1] and no less than 100 µM in experiment [2].
